Measured values as given in the supplement of paper PMC10307832.

Assays:
Assay in all cases: relative viability (nuclei count vs DMSO), 5 days (fraction); higher = more cells survive
Dinaciclib + Palbociclib = compound: CCc1cnn2c(NCc3ccc[n+]([O-])c3)cc(N3CCCC[C@H]3CCO)nc12 [Dinaciclib] + CC(=O)c1c(C)c2cnc(Nc3ccc(N4CCNCC4)cn3)nc2n(C2CCCC2)c1=O [Palbociclib] (partner 0.5 µM)
Procedure, shortened: (§1)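 One day after seeding in 1536-well plates, lung cancer cell lines were dosed by pin tool. Dosing was either single-drug or a fixed anchor-drug dose plus five library-drug doses (not always all listed) in √10 steps. After 5 days, nuclei were stained in one fix-and-stain step and counted on 4× images, and relative viability is the nuclei count of treated wells over that of vehicle wells, given as the median of duplicate plates.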

Dinaciclib + Lapatinib = compound: CCc1cnn2c(NCc3ccc[n+]([O-])c3)cc(N3CCCC[C@H]3CCO)nc12 [Dinaciclib] + CS(=O)(=O)CCNCc1ccc(-c2ccc3ncnc(Nc4ccc(OCc5cccc(F)c5)c(Cl)c4)c3c2)o1 [Lapatinib] (partner 2 µM)
Procedure, shortened: as §1

Dinaciclib + Pemetrexed = compound: CCc1cnn2c(NCc3ccc[n+]([O-])c3)cc(N3CCCC[C@H]3CCO)nc12 [Dinaciclib] + Nc1nc2[nH]cc(CCc3ccc(C(=O)N[C@@H](CCC(=O)O)C(=O)O)cc3)c2c(=O)[nH]1 [Pemetrexed] (partner 0.2 µM)
Procedure, shortened: as §1

Dinaciclib + Pictilisib = compound: CCc1cnn2c(NCc3ccc[n+]([O-])c3)cc(N3CCCC[C@H]3CCO)nc12 [Dinaciclib] + CS(=O)(=O)N1CCN(Cc2cc3nc(-c4cccc5[nH]ncc45)nc(N4CCOCC4)c3s2)CC1 [Pictilisib] (partner 1 µM)
Procedure, shortened: as §1

Dinaciclib + Bortezomib = compound: CCc1cnn2c(NCc3ccc[n+]([O-])c3)cc(N3CCCC[C@H]3CCO)nc12 [Dinaciclib] + CC(C)C[C@H](NC(=O)[C@H](Cc1ccccc1)NC(=O)c1cnccn1)B(O)O [Bortezomib] (partner 0.002 µM)
Procedure, shortened: as §1

| Cell Line | relative viability (Dinaciclib + Palbociclib; first compound 0.009487 µM) | relative viability (Dinaciclib + Palbociclib; first compound 0.03 µM) | relative viability (Dinaciclib + Palbociclib; first compound 0.09487 µM) | relative viability (Dinaciclib + Palbociclib; first compound 0.3 µM) | relative viability (Dinaciclib + Lapatinib; first compound 0.009487 µM) | relative viability (Dinaciclib + Lapatinib; first compound 0.03 µM) | relative viability (Dinaciclib + Lapatinib; first compound 0.09487 µM) | relative viability (Dinaciclib + Lapatinib; first compound 0.3 µM) | relative viability (Dinaciclib + Pemetrexed; first compound 0.009487 µM) | relative viability (Dinaciclib + Pemetrexed; first compound 0.03 µM) | relative viability (Dinaciclib + Pemetrexed; first compound 0.09487 µM) | relative viability (Dinaciclib + Pemetrexed; first compound 0.3 µM) | relative viability (Dinaciclib + Pictilisib; first compound 0.009487 µM) | relative viability (Dinaciclib + Pictilisib; first compound 0.03 µM) | relative viability (Dinaciclib + Pictilisib; first compound 0.09487 µM) | relative viability (Dinaciclib + Pictilisib; first compound 0.3 µM) | relative viability (Dinaciclib + Bortezomib; first compound 0.009487 µM) | relative viability (Dinaciclib + Bortezomib; first compound 0.03 µM) | relative viability (Dinaciclib + Bortezomib; first compound 0.09487 µM) | relative viability (Dinaciclib + Bortezomib; first compound 0.3 µM) |
| --- | --- | --- | --- | --- | --- | --- | --- | --- | --- | --- | --- | --- | --- | --- | --- | --- | --- | --- | --- | --- |
| 201T | 0.354 | 0.285 | 0.231 | 0.228 | 1.14 | 0.743 | 0.361 | 0.245 | 0.317 | 0.311 | 0.206 | 0.187 | 0.714 | 0.372 | 0.308 | 0.265 | 1.15 | 0.718 | 0.321 | 0.281 |
| A549 | – | – | – | – | 0.85 | 0.0505 | 0.0627 | 0.0615 | – | – | – | – | 0.375 | 0.0566 | 0.0629 | 0.0604 | – | – | – | – |
| A-427 | 0.437 | 0.142 | 0.126 | 0.127 | 0.949 | 0.291 | 0.0989 | 0.0767 | 0.883 | 0.156 | 0.101 | 0.112 | 0.564 | 0.0973 | 0.0666 | 0.065 | 0.969 | 0.487 | 0.0789 | 0.0623 |
| ABC-1 | 0.648 | 0.334 | 0.212 | 0.246 | 1.19 | 0.574 | 0.357 | 0.303 | – | – | – | – | 0.658 | 0.157 | 0.163 | 0.136 | 0.231 | 0.179 | 0.167 | 0.157 |
| BEN | 0.458 | 0.386 | 0.287 | 0.296 | 0.731 | 0.343 | 0.166 | 0.186 | 1.07 | 0.501 | 0.23 | 0.274 | 0.621 | 0.388 | 0.173 | 0.191 | 0.817 | 0.497 | 0.159 | 0.247 |
| CAL-12T | 0.121 | 0.137 | 0.108 | 0.128 | 0.323 | 0.171 | 0.179 | 0.149 | 0.771 | 0.141 | 0.133 | 0.13 | 0.201 | 0.105 | 0.122 | 0.116 | 0.484 | 0.203 | 0.142 | 0.127 |
| COR-L23 | 0.222 | 0.0905 | 0.0689 | 0.0651 | 0.688 | 0.0875 | 0.0701 | 0.0804 | 0.184 | 0.21 | 0.112 | 0.093 | 0.414 | 0.0756 | 0.0621 | 0.0547 | 0.646 | 0.0952 | 0.0792 | 0.0558 |
| COR-L 105 | 0.414 | 0.311 | 0.296 | 0.309 | 0.327 | 0.292 | 0.283 | 0.299 | 0.91 | 0.291 | 0.348 | 0.295 | 0.306 | 0.23 | 0.224 | 0.25 | 0.61 | 0.192 | 0.219 | 0.212 |
| ChaGo-K-1 | 0.971 | 0.239 | 0.118 | 0.114 | – | – | – | – | 0.257 | 0.216 | 0.149 | 0.119 | 0.321 | 0.213 | 0.175 | 0.161 | 0.637 | 0.222 | 0.178 | 0.187 |
| EKVX | 0.323 | 0.234 | 0.114 | 0.113 | 0.229 | 0.118 | 0.118 | 0.116 | 0.35 | 0.267 | 0.122 | 0.123 | 0.407 | 0.227 | 0.12 | 0.113 | 1.02 | 0.451 | 0.109 | 0.149 |
| EMC-BAC-2 | 0.46 | 0.323 | 0.224 | 0.248 | 0.85 | 0.598 | 0.165 | 0.157 | 0.451 | 0.381 | 0.288 | 0.259 | 0.621 | 0.303 | 0.136 | 0.15 | 0.978 | 0.779 | 0.137 | 0.148 |
| EPLC-272H | 0.275 | 0.0744 | 0.0435 | 0.0386 | 1 | 0.104 | 0.0545 | 0.051 | 0.189 | 0.0576 | 0.0509 | 0.0711 | 0.218 | 0.0536 | 0.0465 | 0.046 | 0.89 | 0.57 | 0.0541 | 0.0535 |
| H3255 | 0.315 | 0.257 | 0.232 | 0.225 | 0.378 | 0.233 | 0.123 | 0.214 | 0.633 | 0.423 | 0.227 | 0.213 | 0.415 | 0.261 | 0.164 | 0.182 | 0.734 | 0.227 | 0.15 | 0.169 |
| HARA | 0.204 | 0.126 | 0.0948 | 0.0798 | 0.604 | 0.0778 | 0.0593 | 0.0436 | 0.24 | 0.172 | 0.122 | 0.0976 | 0.529 | 0.0709 | 0.0524 | 0.031 | 0.888 | 0.0756 | 0.0605 | 0.0587 |
| HCC-15 | 0.673 | 0.292 | 0.107 | 0.132 | 0.63 | 0.104 | 0.0985 | 0.0923 | 0.217 | 0.122 | 0.128 | 0.125 | 0.637 | 0.117 | 0.0949 | 0.11 | 0.628 | 0.106 | 0.0945 | 0.0993 |
| HCC-44 | 0.9 | 0.798 | 0.367 | 0.342 | 0.921 | 0.144 | 0.134 | 0.135 | 0.665 | 0.695 | 0.388 | 0.351 | 0.711 | 0.248 | 0.122 | 0.129 | 0.883 | 0.115 | 0.106 | 0.102 |
| HCC-78 | 0.432 | 0.374 | 0.253 | 0.3 | 0.75 | 0.806 | 0.125 | 0.136 | 0.895 | 0.91 | 0.858 | 0.927 | 0.197 | 0.226 | 0.105 | 0.11 | 0.61 | 0.169 | 0.133 | 0.122 |
